Experimental data taken from patent US8552018B2, “Substituted tricyclic compounds as protein kinase inhibitors” (Arizona Board of Regents on behalf of the University of …, priority 2003, dated 2013).

Experiments:
[1] = test system: pancreatic cancer cell lines MIAPaCa-2 and PANC-1; experiment: Cancer cell cytotoxicity assay, range over both pancreatic lines; assay type: cell-based; settings: potency order
Procedure: To validate the hypothesis that the designed c-kit/PDGFR tyrosine kinase inhibitors mediate GIST882 cell killing and PDGFR-mediated cell killing of pancreatic cancer cell lines (CFPAC-1, PANC-1 and MIA PaCa-2), an in vitro cytotoxicity assay was performed. The GIST882 cell line used in this study has a c-kit gain-of-function mutation (K642E). […] First the cells were cultured. GIST882 cells were provided by Dr. Jonathan A. Fletcher (Dana-Farber Cancer Institute, Boston, Mass.). PANC-1 and MIAPaCa-2 cells were provided by Dr. Daniel Von Hoff (Arizona Cancer Center, Tucson, Ariz.). […] All the cell lines were incubated in a humidified incubator at 37° C. with 5% CO2 atmosphere.
After incubation for 4 days at 37° C. in a humidified incubator, the cells were fixed with 10% Trichloroacetic acid solution (Catalog No. 490-10, Sigma). Subsequently, they were labeled with 0.04% Sulforhodamine B (S9012, Sigma) in 1% acetic acid. […] The absorbance of each well was read on a plate reader (Wallac Vector^2, PerkinElmer) at the wavelength of 570 nm. Data were expressed as the percentage of survival of control calculated from the absorbance corrected for background absorbance. The surviving percent of cells was determined by dividing the mean absorbance values of the […] by the mean absorbance values of the control and multiplying by 100.

mutant forms of c-Kit = experiment: Activity against mutant c-Kit (stated); assay type: biochemical
mutant forms of PDGFR = experiment: Activity against mutant PDGFR (stated); assay type: biochemical
[2] = test system: Akt phosphorylation in NIH 3T3 cells; experiment: Immunoblot for phospho-Akt (S473); assay type: cell-based
Procedure: (§1) In order to evaluate these effects at the cellular level, immunoblot analysis was performed on lysates from cells treated with MP470, with or without the addition of the EGFR inhibitor Tarceva®. Lysates were assayed for general tyrosine kinase activity, as well as the specific phosphorylation of c-Met and Akt. Briefly, NIH 3T3 cells were pretreated with drugs as indicated for 4 hours, then treated with pervanadate for a further 30 minutes. Immunoblot detection was carried out with antibodies for phosphotyrosine, phospho-Met and phospho-Akt (S473), as well as total c-Met and Akt. Beta-actin was used as a loading control.

[3] = test system: general tyrosine phosphorylation in NIH 3T3 cells; experiment: Immunoblot for phosphotyrosine; assay type: cell-based
Procedure: as §1, with “MP-470 (Compound III-1-3) has inhibitory effects on a number of receptor tyrosine kinases. In” for “In”

[4] = test system: Akt phosphorylation in LNCaP prostate carcinoma cells; experiment: Immunoblot for phospho-Akt (S473); assay type: cell-based; settings: 48 hours
Procedure: LNCaP prostate carcinoma cells were treated with MP-470, in combinations with Tarceva® and Gleevec®, for 48 hours. Following incubation, cells were lysed and total protein subjected to immunoblot analysis for total Akt and phospho-Akt (S473).

LNCaP tumors = experiment: Xenograft study; assay type: in vivo, mice; settings: MP-470/Tarceva® in combination, 18 days treatment, FIG. 35
Procedure: A xenograft study was carried out in order to evaluate the combined effects of MP-470 (Compound III-1-3) and Tarceva® in vivo. LNCaP cells were injected into immunocompromised mice and allowed to develop into measurable tumors, at which point treatment was initiated. Mice were allocated to one of four groups and treated with vehicle, MP-470 (referred to in FIG. 35 as HPK56), Tarceva®, or MP-470/Tarceva® in combination, as indicated. […] The results of these studies are shown in graphical form in FIG. 35.

CDK1 = CDK1 (Homo sapiens, UniProt P06493); experiment: Kinase-Glo Luminescent Kinase Assay (Examples 27, 33); assay type: biochemical
Chain of CDK1 (P06493 whole entry, species assumed): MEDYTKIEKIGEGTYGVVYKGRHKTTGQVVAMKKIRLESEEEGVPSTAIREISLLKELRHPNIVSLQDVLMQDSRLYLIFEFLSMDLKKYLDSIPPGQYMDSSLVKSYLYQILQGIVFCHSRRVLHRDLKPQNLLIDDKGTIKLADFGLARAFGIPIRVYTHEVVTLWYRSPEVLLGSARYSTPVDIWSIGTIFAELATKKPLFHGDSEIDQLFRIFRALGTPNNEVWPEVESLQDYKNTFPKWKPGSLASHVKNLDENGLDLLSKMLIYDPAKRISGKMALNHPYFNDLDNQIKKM
Chain of CDK1 (P14635 whole entry partner, species assumed): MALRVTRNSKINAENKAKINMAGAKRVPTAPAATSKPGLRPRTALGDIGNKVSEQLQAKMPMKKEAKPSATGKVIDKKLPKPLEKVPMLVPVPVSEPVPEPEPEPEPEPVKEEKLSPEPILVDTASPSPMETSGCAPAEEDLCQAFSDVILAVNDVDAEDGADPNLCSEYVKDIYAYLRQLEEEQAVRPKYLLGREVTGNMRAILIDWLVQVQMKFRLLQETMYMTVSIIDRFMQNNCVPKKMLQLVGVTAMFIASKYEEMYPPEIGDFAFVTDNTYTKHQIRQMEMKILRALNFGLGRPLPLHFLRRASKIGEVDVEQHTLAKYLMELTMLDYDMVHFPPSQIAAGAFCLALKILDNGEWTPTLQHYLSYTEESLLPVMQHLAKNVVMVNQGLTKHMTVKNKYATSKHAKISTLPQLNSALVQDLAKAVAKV
Procedure: (§2) The following conditions were used:
(§3) The protein serine-threonine kinases cAMP PK, MKK6 and Cdk1 were tested alongside Aurora-2 kinase to evaluate the activity of compound (II-2-6) against these protein kinases. Briefly, in this assay kinase activity is determined by quantifying the amount of ATP remaining in solution following the kinase reaction by measuring the relative light units (RLU) produced by luciferase using a luminometer. Percent activity was determined for individual compounds by comparing luminometer readings of drug-treated reactions to controls containing no drug (RLUNo Inhib) and no Aurora-2 enzyme (RLUNo Kinase) in the following equation: […]

MKK6 = MKK6 (Homo sapiens, UniProt P52564); experiment: as above; assay type: biochemical
Chain of MKK6 (P52564 whole entry, species assumed): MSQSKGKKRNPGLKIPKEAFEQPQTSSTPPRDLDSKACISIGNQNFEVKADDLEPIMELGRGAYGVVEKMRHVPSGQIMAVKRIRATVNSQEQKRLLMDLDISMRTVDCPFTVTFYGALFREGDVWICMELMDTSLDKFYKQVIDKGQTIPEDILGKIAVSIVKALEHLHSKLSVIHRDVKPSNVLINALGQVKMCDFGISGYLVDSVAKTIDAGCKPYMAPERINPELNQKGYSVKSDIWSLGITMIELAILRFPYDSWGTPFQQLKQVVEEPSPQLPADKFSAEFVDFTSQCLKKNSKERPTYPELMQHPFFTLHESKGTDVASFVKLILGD
Procedure: as §2, §3

cAMP-PK = cAMP-PK (Homo sapiens, UniProt P17612); experiment: as above; assay type: biochemical
Procedure: as §2, §3

aurora-2 kinase = biological target: T1, aurora-2 kinase (Homo sapiens, UniProt O14965); experiment: Protein kinase inhibitory activity (Example 33, Kinase-Glo); assay type: biochemical; settings: FIG. 27
T1 construct: purchased Imgenex, San Diego, Calif; host or cells: sf9 cells
T1 sequence (O14965 1-403): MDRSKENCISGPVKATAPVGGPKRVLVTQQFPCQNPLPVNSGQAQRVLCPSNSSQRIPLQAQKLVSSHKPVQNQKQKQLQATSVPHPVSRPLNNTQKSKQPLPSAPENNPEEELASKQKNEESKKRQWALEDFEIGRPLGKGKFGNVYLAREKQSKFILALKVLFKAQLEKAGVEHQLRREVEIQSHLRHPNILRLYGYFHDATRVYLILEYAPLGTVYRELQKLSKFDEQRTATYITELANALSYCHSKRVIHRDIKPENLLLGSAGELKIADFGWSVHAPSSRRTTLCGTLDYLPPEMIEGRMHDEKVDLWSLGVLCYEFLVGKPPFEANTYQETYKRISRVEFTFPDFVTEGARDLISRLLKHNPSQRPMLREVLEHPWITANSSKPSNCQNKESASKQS
Procedure: After incubation, 50 μl of Kinase-Glo® (Promega, Inc., Madison, Wis.) solution was added to each reaction mixture and allowed to equilibrate for 10 minutes at room temperature. Kinase-Glo solution contains luciferase enzyme and luciferin, which react with ATP to produce light. Kinase activity is determined by quantifying the amount of ATP remaining in solution following the kinase reaction by measuring the relative light units (RLU) produced by luciferase using a luminometer (Thermo Electron Corporation, Vantaa, Finland).

| IC50 (CDK1; CDK1, 0.1 μM ATP, 30 μM Kemptide) [µM] | kinase inhibitory activity (in words) (CDK1; Cdk1, FIG. 27) | IC50 (MKK6; MKK6, 0.1 μM ATP, 30 μM Kemptide) [µM] | kinase inhibitory activity (in words) (MKK6; MKK6, FIG. 27) | kinase inhibitory activity (in words) (cAMP-PK; cAMP PK, FIG. 27) | IC50 (cAMP-PK; cAMP-PK, 0.1 μM ATP, 30 μM Kemptide) [µM] | kinase inhibitory activity (in words) (aurora-2 kinase) | SMILES | IC50 [1] [µM] | activity against mutant forms of c-Kit (in words) (mutant forms of c-Kit) | activity against mutant forms of PDGFR (in words) (mutant forms of PDGFR) | phosphorylation of Akt ([2]; NIH 3T3, 4 hours, agent alone) | phosphorylation of Akt ([2]; NIH 3T3, MP-470 in combination with Tarceva®) | general tyrosine phosphorylation [3] | reduction of phosphorylation of Akt ([4]; MP-470 and Tarceva® in combination) | phosphorylation of Akt ([4]; agent alone) | tumor growth (LNCaP tumors) |
| --- | --- | --- | --- | --- | --- | --- | --- | --- | --- | --- | --- | --- | --- | --- | --- | --- |
| – | – | – | – | – | – | – | S=C(NCc1ccc2c(c1)OCO2)N1CCN(c2ncnc3c2oc2ccccc23)CC1 [HPK56, 4-Benzo[4,5]furo[3,2-d]pyrimidin-4-yl-piperazine-1-carbothioic acid (benzo[1,3]dioxol-5-ylmethyl)-amide] | 2.1 to 3 | low nanomolar | low nanomolar | reduced | reduced | reduced | enhanced | reduced in a dose-dependent manner | slowed tumor growth to nearly zero |
| 22.3 | inhibitory activity | 6.2 | inhibitory activity | inhibitory activity | > 100 | highest activity | COc1cc2[nH]c3ncnc(N4CCN(C(=S)Nc5ccc(S(=O)(=O)Nc6ncccn6)cc5)CC4)c3c2cc1OC [HPK62, 4-(6,7-Dimethoxy-9H-1,3,9-triaza-fluoren-4-yl)-piperazine-1-carbothioic acid [4-(pyrimidin-2-ylsulfamoyl)-phenyl]-amide] | – | – | – | – | – | – | – | – | – |
